# Measured values as given in patent US10526327B2, “Histone demethylase inhibitors” (CELGENE QUANTICEL RESEARCH, INC., priority 2013, dated 2020).
# What was measured:
# JMJD2C = target: T1, JMJD2C (Homo sapiens, UniProt Q9H3R0); assay: JMJD2C in vitro enzyme inhibition assay (TR-FRET); type: biochemical
# T1 construct: purchased BPS Bioscience 50105
# T1 sequence (Q9H3R0 2-372): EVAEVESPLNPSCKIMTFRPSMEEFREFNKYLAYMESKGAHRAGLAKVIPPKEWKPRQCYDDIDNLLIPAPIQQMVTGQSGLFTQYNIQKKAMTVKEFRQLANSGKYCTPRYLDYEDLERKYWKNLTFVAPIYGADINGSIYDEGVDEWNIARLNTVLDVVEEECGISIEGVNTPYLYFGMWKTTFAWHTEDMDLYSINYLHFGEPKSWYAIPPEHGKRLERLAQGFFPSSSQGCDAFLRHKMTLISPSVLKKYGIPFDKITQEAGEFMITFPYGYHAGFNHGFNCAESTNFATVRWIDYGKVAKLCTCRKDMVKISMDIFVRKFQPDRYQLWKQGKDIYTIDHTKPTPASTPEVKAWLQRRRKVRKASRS
# Excerpt: (§1) This assay determines the ability of a test compound to inhibit Jarid1A, Jarid1B, and JMJD2C demethylase activity. Baculovirus expressed Jarid1A (GenBank Accession #NM_001042603, AA1-1090) was purchased from BPS Bioscience (Cat#50110). Baculovirus expressed Jarid1B (GenBank Accession #NM_006618, AA 2-751) was purchased from BPS Bioscience (Cat #50121) or custom made by MolecularThroughput. Baculovirus expressed JMJD2C (GenBank Accession #BC143571, AA 2-372) was purchased from BPS Bioscience (Cat#50105).
# The ability of test compounds to inhibit the activity of JMJD2C was determined in 384-well plate format under the following reaction conditions: 0.3 nM JMJD2C, 300 nM H3K9me3-biotin labeled peptide (Anaspec cat #64360), 2 μM alpha-ketoglutaric acid in assay buffer of 50 mM HEPES, pH7.3, 0.005% Brij35, 0.5 mM TCEP, 0.2 mg/ml BSA, 50 μM sodium L-ascorbate, and 2 μM ammonium iron(II) sulfate. Reaction product was determined quantitatively by TR-FRET after the addition of detection reagent Phycolink Streptavidin-allophycocyanin (Prozyme) and Europium-anti-di-methylated histone H3 lysine 9 (H3K9me2) antibody (PerkinElmer) in the presence of 5 mM EDTA in LANCE detection buffer (PerkinElmer) at a final concentration of 50 nM and 1 nM, respectively.
# (§2) The assay reaction was initiated by the following: 2 μl of the mixture of 900 nM H3K9me3-biotin labeled peptide and 6 μM alpha-ketoglutaric acid with 2 μl of 11-point serial diluted inhibitor in 3% DMSO were added to each well of the plate, followed by the addition of 2 μl of 0.9 nM JMJD2C to initiate the reaction. The reaction mixture was incubated at room temperature for 30 minutes, and terminated by the addition of 6 μl of 5 mM EDTA in LANCE detection buffer containing 100 nM Phycolink Streptavidin-allophycocyanin and 2 nM Europium-anti-H3K9me2 antibody. Plates were read by EnVisionMultilabel Reader in TR-FRET mode (excitation at 320 nm, emission at 615 nm and 665 nm) after 1 hour incubation at room temperature. A ratio was calculated (665/615) for each well and fitted to determine inhibition constant (IC50).
# Jarid1B = target: T2, Jarid1B (Homo sapiens, UniProt Q9UGL1); assay: Jarid1B in vitro enzyme inhibition assay (TR-FRET); type: biochemical
# T2 construct: purchased BPS Bioscience or custom made by MolecularThroughput 50121
# T2 sequence (Q9UGL1 2-751): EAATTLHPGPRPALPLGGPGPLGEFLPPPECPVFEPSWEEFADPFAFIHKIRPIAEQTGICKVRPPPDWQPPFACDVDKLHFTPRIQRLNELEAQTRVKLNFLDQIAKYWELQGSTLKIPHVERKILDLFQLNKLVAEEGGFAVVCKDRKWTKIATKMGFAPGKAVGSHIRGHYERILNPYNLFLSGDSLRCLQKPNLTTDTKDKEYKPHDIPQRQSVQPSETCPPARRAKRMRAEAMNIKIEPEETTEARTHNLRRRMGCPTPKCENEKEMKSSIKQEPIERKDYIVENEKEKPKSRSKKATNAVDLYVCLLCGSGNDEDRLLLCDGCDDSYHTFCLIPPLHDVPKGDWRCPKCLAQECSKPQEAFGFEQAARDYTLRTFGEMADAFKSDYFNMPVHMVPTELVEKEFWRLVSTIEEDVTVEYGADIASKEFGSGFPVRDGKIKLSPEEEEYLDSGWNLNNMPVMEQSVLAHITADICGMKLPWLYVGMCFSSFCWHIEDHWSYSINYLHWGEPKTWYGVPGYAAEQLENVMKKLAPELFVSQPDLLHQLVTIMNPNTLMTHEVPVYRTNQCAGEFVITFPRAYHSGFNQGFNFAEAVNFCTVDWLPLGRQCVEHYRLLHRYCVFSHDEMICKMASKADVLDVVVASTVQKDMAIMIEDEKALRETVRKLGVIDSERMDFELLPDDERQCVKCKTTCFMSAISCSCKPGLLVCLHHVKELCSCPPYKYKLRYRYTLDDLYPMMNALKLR
# Excerpt: as §1
# The ability of test compounds to inhibit the activity of Jarid1B was determined in 384-well plate format under the following reaction conditions: 0.8 nM Jarid1B, 300 nM H3K4me3-biotin labeled peptide (Anaspec cat #64357), 2 μM alpha-ketoglutaric acid in assay buffer of 50 mM HEPES, pH7.3, 0.005% Brij35, 0.5 mM TCEP, 0.2 mg/ml BSA, 50 μM sodium L-ascorbate, and 2 μM ammonium iron(II) sulfate. Reaction product was determined quantitatively by TR-FRET after the addition of detection reagent Phycolink Streptavidin-allophycocyanin (Prozyme) and Europium-anti-mono-or di-methylated histone H3 lysine 4 (H3K4me1-2) antibody (PerkinElmer) in the presence of 5 mM EDTA in LANCE detection buffer (PerkinElmer) at a final concentration of 25 nM and 1 nM, respectively.
# as §2, with “nM H3K4me3-biotin” for “nM H3K9me3-biotin”, “DMSO was” for “DMSO were”, “of 2.4” for “of 0.9”, “nM Jarid1B” for “nM JMJD2C”, “containing 50” for “containing 100”, “nM Europium-anti-H3K4me1-2” for “nM Europium-anti-H3K9me2”
Compound,IC50 (JMJD2C) [nM],IC50 (Jarid1B) [nM]
"COc1ccc(Oc2nc(O)c3ccncc3n2)cc1OC [Example 38, 2-(3,4-dimethoxyphenoxy)pyrido[3,4-d]pyrimidin-4-ol]",100 to 1000,≤ 100
"CC(C)c1cccc(Oc2nc(O)c3ccncc3n2)c1 [Example 39, 2-(3-propan-2-ylphenoxy)pyrido[3,4-d]pyrimidin-4-ol]",100 to 1000,≤ 100
"Oc1nc(Oc2cccc(Cl)c2)nc2cnccc12 [Example 41, 2-(3-chlorophenoxy)pyrido[3,4-d]pyrimidin-4-ol]",100 to 1000,≤ 100
"Oc1nc(Oc2cccc(F)c2F)nc2cnccc12 [Example 42, 2-(2,3-difluorophenoxy)pyrido[3,4-d]pyrimidin-4-ol]",100 to 1000,100 to 1000
"COc1c(F)cc(Oc2nc(O)c3ccncc3n2)cc1F [Example 43, 2-(3,5-difluoro-4-methoxyphenoxy)pyrido[3,4-d]pyrimidin-4-ol]",100 to 1000,≤ 100
"COc1cccc(Oc2nc(O)c3ccncc3n2)c1 [Example 44, 2-(3-methoxyphenoxy)pyrido[3,4-d]pyrimidin-4-ol]",100 to 1000,≤ 100
"CCOc1c(F)cc(Oc2nc(O)c3ccncc3n2)cc1F [Example 45, 2-(4-ethoxy-3,5-difluorophenoxy)pyrido[3,4-d]pyrimidin-4-ol]",100 to 1000,≤ 100
"Oc1nc(Oc2ccccc2F)nc2cnccc12 [Example 46, 2-(2-fluorophenoxy)pyrido[3,4-d]pyrimidin-4-ol]",100 to 1000,100 to 1000
"Oc1nc(Oc2ccc(F)cc2)nc2cnccc12 [Example 47, 2-(4-fluorophenoxy)pyrido[3,4-d]pyrimidin-4-ol]",100 to 1000,≤ 100
"CN(C)c1cccc(Oc2nc(O)c3ccncc3n2)c1 [Example 50, 2-[3-(dimethylamino)phenoxy]pyrido[3,4-d]pyrimidin-4-ol]",100 to 1000,≤ 100
"Oc1nc(Oc2cccc(C(F)(F)F)c2)nc2cnccc12 [Example 52, 2-[3-(trifluoromethyl)phenoxy]pyrido[3,4-d]pyrimidin-4-ol]",100 to 1000,≤ 100
"COc1ccc(Oc2nc(O)c3ccncc3n2)cc1F [Example 53, 2-(3-fluoro-4-methoxyphenoxy)pyrido[3,4-d]pyrimidin-4-ol]",100 to 1000,≤ 100
"CCCn1cc(Oc2nc(O)c3ccncc3n2)cn1 [Example 54, 2-(1-propylpyrazol-4-yl)oxypyrido[3,4-d]pyrimidin-4-ol]",100 to 1000,≤ 100

# Second part, the compound after the results:
IC50 (JMJD2C) [nM],IC50 (Jarid1B) [nM],Compound
100 to 1000,100 to 1000,"OCCOc1nc(O)c2ccncc2n1 [Example 3, 2-(2-hydroxyethoxy)pyrido[3,4-d]pyrimidin-4-ol]"
100 to 1000,100 to 1000,"Oc1nc(OCc2ccccc2)nc2cnccc12 [Example 4, 2-phenylmethoxypyrido[3,4-d]pyrimidin-4-ol]"
100 to 1000,100 to 1000,"Oc1nc(OCC2CC2)nc2cnccc12 [Example 5, 2-(cyclopropylmethoxy)-3H-pyrido[3,4-d]pyrimidin-4-one]"
100 to 1000,100 to 1000,"Oc1nc(OC2CCCC2)nc2cnccc12 [Example 6, 2-cyclopentyloxy-3H-pyrido[3,4-d]pyrimidin-4-one]"
100 to 1000,100 to 1000,"CCCOc1nc(O)c2ccncc2n1 [Example 7, 2-propoxy-3H-pyrido[3,4-d]pyrimidin-4-one]"
100 to 1000,100 to 1000,"COc1nc(O)c2ccncc2n1 [Example 8, 2-methoxypyrido[3,4-d]pyrimidin-4-ol]"
≤ 100,1000 to 10000,"CCC(C)Oc1nc(O)c2ccncc2n1 (stereo not shown) [Example 9, 2-butan-2-yloxy-3H-pyrido[3,4-d]pyrimidin-4-one]"
100 to 1000,100 to 1000,"Oc1nc(OCCOc2ccccc2)nc2cnccc12 [Example 10, 2-(2-phenoxyethoxy)-3H-pyrido[3,4-d]pyrimidin-4-one]"
100 to 1000,100 to 1000,"Oc1nc(OCC2CCC2)nc2cnccc12 [Example 11, 2-(cyclobutylmethoxy)-3H-pyrido[3,4-d]pyrimidin-4-one]"
100 to 1000,100 to 1000,"Oc1nc(OCC(F)(F)F)nc2cnccc12 [Example 12, 2-(2,2,2-trifluoroethoxy)pyrido[3,4-d]pyrimidin-4-ol]"
100 to 1000,≤ 100,"CC(=O)Nc1ccc(Oc2nc(O)c3ccncc3n2)cc1 [Example 35, N-[4-(4-hydroxypyrido[3,4-d]pyrimidin-2-yl)oxyphenyl]acetamide]"
100 to 1000,≤ 100,"CC(C)(C)OC(=O)Nc1cccc(Oc2nc(O)c3ccncc3n2)c1 [Example 36, tert-butyl N-[3-(4-hydroxypyrido[3,4-d]pyrimidin-2-yl)oxyphenyl]carbamate]"
≤ 100,≤ 100,"Oc1nc(Oc2ccc(F)c(F)c2)nc2cnccc12 [Example 37, 2-(3,4-difluorophenoxy)pyrido[3,4-d]pyrimidin-4-ol]"
≤ 100,≤ 100,"Oc1nc(Oc2cccc(F)c2)nc2cnccc12 [Example 40, 2-(3-fluorophenoxy)pyrido[3,4-d]pyrimidin-4-ol]"
≤ 100,≤ 100,"COc1ccc(Oc2nc(O)c3ccncc3n2)cc1 [Example 48, 2-(4-methoxyphenoxy)pyrido[3,4-d]pyrimidin-4-ol]"
≤ 100,≤ 100,"Oc1nc(Oc2ccc(Cl)cc2)nc2cnccc12 [Example 49, 2-(4-chlorophenoxy)pyrido[3,4-d]pyrimidin-4-ol]"
